In paper PMC4076210, “Discovery of Novel AKT Inhibitors with Enhanced Anti-Tumor Effects in Combination with the MEK Inhibitor” (PLoS ONE, 2014):

How the values were obtained:
[1] = parameters: method as in PMID 18381444; details: mice; cited from earlier work
CAPAN-2 tumor xenografts = assay: Xenograft tumor growth inhibition, combination with MEK inhibitor; assay type: in vivo, mouse; details: 0.3 mg/kg, day 69
Experimental: (§1) Tumors were initiated by injecting either cells (SKOV3, CAPAN-2 and HPAC) or a tumor fragments (BT474) subcutaneously into 6–8 week female athymic nude (SKOV3) and SCID (all others) mice. Once tumors reached between 120 and 300 mm^3, mice were randomized according to tumor volume into groups of n = 7–10 mice per treatment. GSK2110183 and GSK2141795 were administered daily at various doses by oral gavage. In combination experiments, GSK1120212 was also administered daily by oral gavage. Tumor volumes and body weight were measured twice weekly, tumor volume was measured with calipers and calculated using equation: […]. Results are represented as percent inhibition on completion of dosing = 100 x [1- average growth of drug-treated population/average growth of vehicle-treated control population].

HPAC tumor xenografts = assay: as above; assay type: in vivo, mouse; details: 0.3 mg/kg daily, day 42
Experimental: as §1

| SMILES | hyperglycemia (blood glucose) [1] [mg/dL] | TGI (CAPAN-2 tumor xenografts) [%] | TGI (HPAC tumor xenografts) [%] |
| --- | --- | --- | --- |
| CCn1c(-c2nonc2N)nc2c(C#CC(C)(C)O)ncc(OC[C@H]3CCCNC3)c21 [GSK690693] | ~500 | – | – |
| CC(=O)Nc1cccc(-n2c(=O)n(C3CC3)c(=O)c3c(Nc4ccc(I)cc4F)n(C)c(=O)c(C)c32)c1 [GSK1120212, trametinib, reference compound] | – | 90 | 65 |
